# PMC7602804 (Nutrients, 2020)
# No end group written: not given here.
# Columns and labels:
# [1] = tested on: porcine brain endothelial cell (PBEC) monolayers; test: Apical to basolateral transport of milk peptides across porcine brain endothelial cell (PBEC) monolayers, blood-brain barrier model; format: in vitro ADME; conditions: 2.5 h
# Description: Capillaries were isolated from the brain cortices of domestic pigs 5–6 months old as previously described. PBECs were cultured by plating the capillaries in T75 flasks coated with collagen IV (500 µg/mL) and fibronectin (100 µg/mL) in DMEM-F12 medium, supplemented with 10% plasma-derived serum (First Link, Wolverhampton, UK), heparin (15 U), 100 units/mL of penicillin and 100 µg/mL of streptomycin (PBEC growth medium), and cultured in an incubator with humidified 5% CO2/95% air at 37 °C. Puromycin (4 µg/mL) was added to the growth medium for the first three days to obtain a pure culture of PBECs.
# Astrocyte conditioned medium was collected every third day from primary rat astrocytes, sterile filtered and frozen until use. Isolation of primary rat astrocytes and preparation of astrocyte conditioned media were carried out as described in [20].
# PBECs were grown until 70–80% confluency as described above and then passaged onto polyester culture inserts with a pore size of 0.4 μm and a growth area of 1.12 cm^2 (Costar, Corning, NY, USA) at a density of 1.1 × 10^5 cells/cm^2 in the PBEC growth medium. In the basolateral chamber, the medium consisted of 1 mL of PBEC growth medium and 0.5 mL of astrocyte conditioned medium. The medium was supplemented with differentiation factors: 550 nM of hydrocortisone, 250 μM of 8-(4-chlorophenylthio)adenosine-3′,5′-cyclic monophosphate (cAMP) and 17.5 μM of RO-201724 two days after seeding. The next day, the integrity of the PBEC monolayer was confirmed by measuring the TEER. Only PBEC monolayers with TEER values higher than 800 Ω cm^2 were used for the transport analysis.
# Following the TEER value measurement, the Caco-2 and PBEC monolayers were gently washed twice with phosphate-buffered saline, and the transport medium (Hanks’ Balanced Salt solution supplemented with 10 mM of HEPES) was added to the apical and basolateral compartments. The inserts were incubated for 15 min or 2.5 h with the purified milk peptides (0.1 mg/mL) or the synthetic PIGSENSEKTTMPLW peptide (2 µg/mL), after which medium from the apical and basolateral compartments were collected for liquid chromatography tandem mass spectrometry (LC-MS/MS) analysis. Inserts incubated with a medium without peptides served as the control in the transport experiments. Membrane integrity was validated by addition of D-[1-^14C]-Mannitol (3.5 µM, 56.8 mCi/mmol) (Perkin Elmer, Waltham, MA, USA) to the upper chamber of the culture inserts with or without milk peptides for 2.5 h. The passive permeability experiments were performed on four or five individual culture inserts. Basolateral samples were mixed with Ultima Gold liquid scintillation fluid (Perkin Elmer) and counted in a Tri-Carb 2810 TR scintillation counter (Perkin Elmer). The apparent permeability coefficient (Papp, cm/s) was determined as Papp = (dQ/dt)/(AC0) where dQ/dt is the steady state flux (cpm/s), A is the surface area of the cell culture insert membrane and C0 is the initial concentration in the apical compartment (cpm/mL).
# LC-MS/MS analysis was performed on a TripleTOF 6600 mass spectrometer equipped with an Exigent nanoLC 415 system (AB Sciex, Les Ulis, France). All samples were micro-purified using 3 M Empore C18 discs packed in pipette tips. The lyophilized samples were dissolved in 0.1% formic acid, injected on a trap column (2 cm × 100 µm inner diameter) and separated on an analytical column packed in-house in a pulled emitter (15 cm × 75 µm inner diameter). All columns were packed with ReproSil-Pur C18-AQ 3 µm resin (courtesy of Dr. Marisch, Ammerbuch-Entringen, Germany). […]
# [2] = tested on: pepsin, then trypsin, chymotrypsin and elastase; test: In vitro simulation of gastrointestinal digestion; format: in vitro ADME; conditions: 37 °C
# Description: The purified milk peptides and the synthesized PIGSENSEKTTMPLW and […] peptides were subjected to digestion, essentially as described in [5, 26] with few modifications. The peptides were dissolved in 0.15 M of NaCl with a pH of 2.5 at a concentration of 1 mg/mL and incubated with pepsin from porcine gastric mucosa in a 1:100 w/w enzyme to substrate ratio for 60 min at 37 °C. Before digestion with pancreatic proteases, the sample was lyophilized and washed twice in deionized water. Trypsin and chymotrypsin from a bovine pancreas (Worthington Biochemical Corporation, NJ, USA) (1:100 w/w) and elastase (Worthington) (1:500 w/w) were added in 50 mM of ammonium bicarbonate buffer (pH = 7.6) and the mixture was incubated for 60 min at 37 °C. In digests of the synthesized peptides, aliquots were sampled and analyzed after 5 min, 30 min, 60 min and 270 min incubation with the intestinal enzymes. Bovine milk osteopontin was purified as previously described and incubated with the digestive proteases to validate their activity. The digested milk peptides were separated by RP-HPLC on an Aeris C4 widepore column (Phenomenex, Værløse, Denmark) connected to a Shimadzu (Kyoto, Japan) HPLC system. The peptides were separated in 0.1% TFA (buffer A) and eluted with a gradient of 60% acetonitrile in 0.1% TFA (buffer B) at 40 °C. The gradient was developed over 59 min (0–5 min: 0% buffer B; 5–49 min: 0–98% buffer B; 49–59 min: 98% buffer B) at a flow rate of 0.85 mL/min. The peptides were detected by measuring the absorbance at 226 nm and analyzed by matrix-assisted laser desorption ionization time-of-flight mass spectrometry (MALDI-MS).
# MALDI-MS was performed using a Bruker Autoflex III instrument (Bruker Daltonics, Bremen, Germany). The analysis was performed using a saturated solution of α-cyano-4-hydroxycinnamic acid. The instrument was operated in reflected positive ionization mode and calibrated in the mass range of 1000 to 3200 Da using a peptide calibration standard (Bruker Daltonics, Bremen, Germany). The theoretical peptide masses were calculated using the General Protein/Mass Analysis for Windows software (Lighthouse Data, Odense, Denmark).
sequence,measurement,setting,value
PIGSENSEKTTMPLW [PIGSENSEKTTMPLW],Peptide identified in the basal compartment (brain side) of the PBEC BBB model (transported),"[1]; primary PBEC on polyester inserts 0.4 μm, astrocyte conditioned medium, TEER higher than 800 Ω cm^2, A-B, mix of 192 milk peptides 0.1 mg/mL apical, HBSS + 10 mM HEPES, LC-MS/MS, five independent studies, αS1 peptide 'or' its truncated peptides stated collectively",identified in all experiments
same,Fate of synthetic peptide during transport over PBEC monolayers,"[1]; synthetic peptide 2 µg/mL apical, LC-MS/MS of basal medium",cleaved by carboxypeptidases during the transport
same,Stability of the synthetic peptide / control in simulated gastrointestinal digestion,"[2]; 1 mg/mL, pepsin 1:100 w/w, 0.15 M NaCl pH 2.5, 60 min, chymotrypsin 1:100 and elastase 1:500 w/w, 50 mM ammonium bicarbonate pH 7.6, 37 °C, sampled 5, 30, 60 and 270 min, MALDI-MS (osteopontin: SDS-PAGE)",observed even after 270 min of digestion
same,Resistance to simulated gastrointestinal digestion within the purified milk peptide mix,"[2]; purified milk peptides 1 mg/mL, pepsin 1:100, pH 2.5, 60 min, chymotrypsin 1:100, elastase 1:500, pH 7.6, 60 min, RP-HPLC fractions, MALDI-MS, before and after digestion",observed
